Source: patent publication US7317013B2 (priority 2003, dated 2008)
Structures can show the parent of a compound that is named as a salt.

Legend:
[1] = target: T1, airway epithelial sodium currents (epithelial Na+ channel, ENaC) (Canis lupus familiaris, UniProt A0A8I3MKE6+A0A8I3Q679+Q95165); test: Sodium channel blocking activity: inhibition of short circuit current (ISC) in airway epithelial monolayers mounted in Ussing chambers; format: cell-based, canine; details: for Fold Amiloride** (PSA 4022 = 100): relative potency for PSA 4022 = 100 using EC50 from PSA 4022 in same run
T1 sequence (A0A8I3Q679 1-649): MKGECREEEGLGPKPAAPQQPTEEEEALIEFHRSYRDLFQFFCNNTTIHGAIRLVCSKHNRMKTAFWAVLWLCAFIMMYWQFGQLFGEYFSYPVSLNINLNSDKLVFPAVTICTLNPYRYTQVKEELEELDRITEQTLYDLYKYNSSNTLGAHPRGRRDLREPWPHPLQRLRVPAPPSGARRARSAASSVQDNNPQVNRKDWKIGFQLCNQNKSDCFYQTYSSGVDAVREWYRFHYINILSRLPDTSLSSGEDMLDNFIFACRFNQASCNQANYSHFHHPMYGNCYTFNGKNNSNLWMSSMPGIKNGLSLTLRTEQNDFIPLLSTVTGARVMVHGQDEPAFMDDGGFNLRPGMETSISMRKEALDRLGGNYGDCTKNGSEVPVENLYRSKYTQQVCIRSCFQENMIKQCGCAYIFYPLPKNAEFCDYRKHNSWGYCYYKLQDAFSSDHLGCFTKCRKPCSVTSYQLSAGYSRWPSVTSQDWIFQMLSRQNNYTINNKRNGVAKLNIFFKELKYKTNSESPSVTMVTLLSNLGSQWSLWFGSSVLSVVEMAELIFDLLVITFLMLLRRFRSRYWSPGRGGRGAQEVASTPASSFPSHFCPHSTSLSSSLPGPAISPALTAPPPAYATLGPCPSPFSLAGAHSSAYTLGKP
T1 sequence (Q95165 1-641): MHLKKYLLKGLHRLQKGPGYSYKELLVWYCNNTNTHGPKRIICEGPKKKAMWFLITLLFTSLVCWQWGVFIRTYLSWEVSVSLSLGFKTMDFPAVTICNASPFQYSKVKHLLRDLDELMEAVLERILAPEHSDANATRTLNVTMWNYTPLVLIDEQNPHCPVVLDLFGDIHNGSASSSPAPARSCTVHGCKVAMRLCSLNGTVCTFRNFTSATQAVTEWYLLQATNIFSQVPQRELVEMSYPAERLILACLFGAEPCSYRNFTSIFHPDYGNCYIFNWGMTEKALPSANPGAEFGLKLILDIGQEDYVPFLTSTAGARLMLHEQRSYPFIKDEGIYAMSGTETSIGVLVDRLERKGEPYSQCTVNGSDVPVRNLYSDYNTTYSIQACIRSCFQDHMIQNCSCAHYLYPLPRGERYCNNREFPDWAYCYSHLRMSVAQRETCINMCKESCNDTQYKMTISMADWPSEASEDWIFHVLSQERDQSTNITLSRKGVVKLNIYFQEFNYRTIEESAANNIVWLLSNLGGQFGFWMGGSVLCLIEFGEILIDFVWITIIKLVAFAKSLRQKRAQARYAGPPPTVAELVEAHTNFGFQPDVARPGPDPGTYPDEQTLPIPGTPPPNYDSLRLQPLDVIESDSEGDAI
T1 sequence (A0A8I3MKE6 1-646): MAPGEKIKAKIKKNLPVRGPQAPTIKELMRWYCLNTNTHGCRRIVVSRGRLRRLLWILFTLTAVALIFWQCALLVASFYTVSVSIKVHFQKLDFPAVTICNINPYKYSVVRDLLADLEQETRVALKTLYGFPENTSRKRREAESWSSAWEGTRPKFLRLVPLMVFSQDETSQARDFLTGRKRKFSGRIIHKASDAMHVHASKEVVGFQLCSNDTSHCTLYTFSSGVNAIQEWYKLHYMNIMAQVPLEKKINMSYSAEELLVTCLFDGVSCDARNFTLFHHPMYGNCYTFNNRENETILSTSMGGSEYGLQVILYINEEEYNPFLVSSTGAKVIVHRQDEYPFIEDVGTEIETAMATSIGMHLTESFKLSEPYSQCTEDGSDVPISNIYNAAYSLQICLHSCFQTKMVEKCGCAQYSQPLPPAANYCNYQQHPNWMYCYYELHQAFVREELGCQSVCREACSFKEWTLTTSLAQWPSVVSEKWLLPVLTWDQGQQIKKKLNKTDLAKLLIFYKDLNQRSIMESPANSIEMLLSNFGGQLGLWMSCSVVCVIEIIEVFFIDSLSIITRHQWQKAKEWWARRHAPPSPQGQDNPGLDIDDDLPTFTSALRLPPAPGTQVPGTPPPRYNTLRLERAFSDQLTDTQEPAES
Experimental: One assay used to assess mechanism of action and/or potency of the compounds of the present invention involves the determination of lumenal drug inhibition of airway epithelial sodium currents measured under short circuit current (ISC) using airway epithelial monolayers mounted in Ussing chambers. Cells obtained from freshly excised human, dog, sheep or rodent airways are seeded onto porous 0.4 micron Snapwell™ Inserts (CoStar), cultured at air-liquid interface (ALI) conditions in hormonally defined media, and assayed for sodium transport activity (ISC) while bathed in Krebs Bicarbonate Ringer (KBR) in Using chambers. All test drug additions are to the lumenal bath with half-log dose addition protocols (from 1×10^−11 M to 3×10^−5 M), and the cumulative change in ISC (inhibition) recorded. All drugs are prepared in dimethyl sulfoxide as stock solutions at a concentration of 1×10^−2 M and stored at −20° C. Eight preparations are typically run in parallel; two preparations per run incorporate amiloride and/or benzamil as positive controls. After the maximal concentration (5×10^−5 M) is administered, the lumenal bath is exchanged three times with fresh drug-free KBR solution, and the resultant ISC measured after each wash for approximately 5 minutes in duration. Reversibility is defined as the percent return to the baseline value for sodium current after the third wash. All data from the voltage clamps are collected via a computer interface and analyzed off-line.
Dose-effect relationships for all compounds are considered and analyzed by the Prism 3.0 program. IC50 values, maximal effective concentrations, and reversibility are calculated and compared to amiloride and benzamil as positive controls.
Statistics: Data were analyzed using SYSTAT for Windows, version 5. Data were analyzed using a two-way repeated ANOVA (to assess overall effects), followed by a paried t-test to identify differences between specific pairs. Significance was accepted when P was less than or equal to 0.05. […] The compounds can be further tested tested for potency in canine bronchial epithelia using the in vitro assay described above. The results for the compounds of the present invention are reported as fold-enhancement values relative to amiloride.

| Compound | melting point [°C] | Fold Amiloride** (PSA 4022 = 100) [1] | EC50 ([1]; lumenal drug addition, bronchial epithelia, mean ± spread (n in cell)) [nM] |
| --- | --- | --- | --- |
| N=C(NCCCCC1CCN(CC(O)CO)CC1)NC(=O)c1nc(Cl)c(N)nc1N (centres unmarked) | 188 to 191 |  |  |
| N=C(NCCCCC1CCN(CCCO)CC1)NC(=O)c1nc(Cl)c(N)nc1N (as salt: hydrochloride) | 165 to 167 |  |  |
| N=C(NCCCCC1CCN(CCN)CC1)NC(=O)c1nc(Cl)c(N)nc1N (as salt: hydrochloride) | > 200 |  |  |
| N=C(NCCCCC1CCN(CCCN)CC1)NC(=O)c1nc(Cl)c(N)nc1N (as salt: hydrochloride) | 105 to 108 |  |  |
| N=C(N)NCCCN1CCC(CCCCNC(=N)NC(=O)c2nc(Cl)c(N)nc2N)CC1 (as salt: hydrochloride) | 176 to 178 |  |  |
| N=C(NCCCCC1CCN(CCO)CC1)NC(=O)c1nc(Cl)c(N)nc1N [compound 25193] |  | 8 ± 3 (n = 6) |  |
| N=C(NCCCCC1CCN(CCCO)CC1)NC(=O)c1nc(Cl)c(N)nc1N [compound 25310] |  | 5 ± 2 (n = 8) |  |
| CC(C)(C)OC(=O)NCCCN1CCC(CCCCNC(=N)NC(=O)c2nc(Cl)c(N)nc2N)CC1 [compound 25452] |  | 8 ± 1 (n = 6) |  |
| N=C(NCCCCC1CCN(CCN)CC1)NC(=O)c1nc(Cl)c(N)nc1N [compound 25455] |  | 5 ± 1 (n = 7) |  |
| N=C(NCCCCC1CCN(CC(O)CO)CC1)NC(=O)c1nc(Cl)c(N)nc1N (centres unmarked) [compound 25456] |  | 6 ± 2 (n = 7) |  |
| N=C(NCCCCC1CCN(CCCN)CC1)NC(=O)c1nc(Cl)c(N)nc1N [compound 25510] |  | 3 ± 9 (n = 7) |  |
| CC(C)(C)OC(=O)N=C(NCCCN1CCC(CCCCNC(=N)NC(=O)c2nc(Cl)c(N)nc2N)CC1)NC(=O)OC(C)(C)C [compound 25569] |  | 41 ± 9 (n = 9) |  |
| Cl.Cl.Cl.N=C(N)NCCCN1CCC(CCCCNC(=N)NC(=O)c2nc(Cl)c(N)nc2N)CC1 [compound 25795] |  | 18 ± 7 (n = 4) | 37 ± 5 |
